{"source": "patent US10106504B2", "about": "“Pyridin-3-yl acetic acid derivatives as inhibitors of human immunodeficiency virus replication” (priority 2015, dated 2018)", "system": "NL-RLuc virus", "experiment": "Inhibition of HIV replication (NL-RLuc virus, luciferase readout in MT-2 cells)", "assay_type": "cell-based", "details": "Human immunodeficiency virus 1, MT2, 120 h", "description": "Inhibition of HIV Replication:\nA recombinant NL-RLuc proviral clone was constructed in which a section of the nef gene from NL4-3 was replaced with the Renilla Luciferase gene. This virus is fully infectious and can undergo multiple cycles of replication in cell culture. In addition, the luciferous reporter provides a simple and easy method for quantitating the extent of virus growth and consequently, the antiviral activity of test compounds. The plasmid pNLRLuc contains the proviral NL-Rluc DNA cloned into pUC18 at the PvuII site. The NL-RLuc virus was prepared by transfection of 293T cells with the plasmid pNLRLuc. Transfections were performed using the LipofectAMINE PLUS kit from Invitrogen (Carlsbad, Calif.) according to the manufacturer and the virus generated was titered in MT-2 cells. For susceptibility analyses, the titrated virus was used to infect MT-2 cells in the presence of compound, and after 5 days of incubation, cells were processed and quantitated for virus growth by the amount of expressed luciferase. Assay media was RPMI 1640 supplemented with 10% heat inactivated fetal bovine serum (FBS), 100 units/ml penicillin G/100 units/ml streptomycin, 10 mM HEPES buffer pH 7.55 and 2 mM L-glutamine. The results from at least 2 experiments were used to calculate the EC50 values. Luciferase was quantitated using the Dual Luciferase kit from Promega (Madison, Wis.). Susceptibility of viruses to compounds was determined by incubation in the presence of serial dilutions of the compound. The 50% effective concentration (EC50) was calculated by using the exponential form of the median effect equation where (Fa)=1/[1+(ED50/drug conc.)^m] (Johnson V A, Byington R T. Infectivity Assay. In Techniques in HIV Research. ed. Aldovini A, Walker BD. 71-76. New York: Stockton Press. 1990). Activity equal to A refers to a compound having an EC50<100 nM, while B and C denote compounds having an EC50 between 100 nM and 1 uM (B) or >1 uM (C).", "note": "Like-named read-outs stand apart in the source and are kept apart here."}
{"compound": "Cc1nc(C)c([C@H](OC(C)(C)C)C(=O)O)c(-c2cc(F)c3c(c2C)CCCO3)c1-c1cc(F)c2c(c1C)CCCO2", "note": "[Example 1, (2S)-2-(4,5-Bis(8-fluoro-5-methylchroman-6-yl)-2,6-dimethylpyridin-3-yl)-2-(tert-butoxy)acetic Acid]", "values": [{"measurement": "EC50", "setting": "read-out: Activity", "result": "> 1", "unit": "µM"}, {"measurement": "EC50", "setting": "read-out: EC50 μM", "result": 1.74, "unit": "µM"}]}
{"compound": "COc1ccc(COc2ccc(-c3c(C)nc(C)c([C@H](OC(C)(C)C)C(=O)O)c3-c3ccc(Cl)cc3)cc2)cc1", "note": "[Example 2, (S)-2-(tert-Butoxy)-2-(4-(4-chlorophenyl)-5-(4-((4-methoxybenzyl)oxy)phenyl)-2,6-dimethylpyridin-3-yl)acetic Acid]", "values": [{"measurement": "EC50", "setting": "read-out: Activity", "result": "< 0.1", "unit": "µM"}, {"measurement": "EC50", "setting": "read-out: EC50 μM", "result": 0.073, "unit": "µM"}]}
{"compound": "COc1ccc(COc2ccc(-c3c(C)nc(C)c([C@H](OC(C)(C)C)C(=O)O)c3-c3ccc(C)cc3)cc2)cc1", "note": "[Example 3, (S)-2-(tert-Butoxy)-2-(5-(4-((4-methoxybenzyl)oxy)phenyl)-2,6-dimethyl-4-(p-tolyl)pyridin-3-yl)acetic Acid]", "values": [{"measurement": "EC50", "setting": "read-out: Activity", "result": "0.1 to 1", "unit": "µM"}, {"measurement": "EC50", "setting": "read-out: EC50 μM", "result": 0.196, "unit": "µM"}]}
{"compound": "COc1ccc(COc2ccc(-c3c(C)nc(C)c([C@H](OC(C)(C)C)C(=O)O)c3-c3ccc(OCc4ccc(OC)cc4)cc3)cc2)cc1", "note": "[Example 4, (S)-2-(4,5-Bis(4-((4-methoxybenzyl)oxy)phenyl)-2,6-dimethylpyridin-3-yl)-2-(tert-butoxy)acetic Acid]", "values": [{"measurement": "EC50", "setting": "read-out: Activity", "result": "0.1 to 1", "unit": "µM"}]}
{"compound": "Cc1ccc(-c2c(-c3ccc(OCc4ccc(F)cc4)cc3)c(C)nc(C)c2[C@H](OC(C)(C)C)C(=O)O)cc1", "note": "[Example 5, (S)-2-(tert-Butoxy)-2-(5-(4-((4-fluorobenzyl)oxy)phenyl)-2,6-dimethyl-4-(p-tolyl)pyridin-3-yl)acetic Acid]", "values": [{"measurement": "EC50", "setting": "read-out: Activity", "result": "0.1 to 1", "unit": "µM"}]}
{"compound": "Cc1nc(C)c([C@H](OC(C)(C)C)C(=O)O)c(-c2cc(F)c3c(c2C)CCCO3)c1-c1ccc(OCCc2ccc(F)cc2)cc1", "note": "[Example 6, (2S)-2-(tert-Butoxy)-2-(4-(8-fluoro-5-methylchroman-6-yl)-5-(4-(4-fluorophenethoxy)phenyl)-2,6-dimethylpyridin-3-yl)acetic Acid]", "values": [{"measurement": "EC50", "setting": "read-out: Activity", "result": "< 0.1", "unit": "µM"}]}
{"compound": "CCOc1ccc(-c2c(C)nc(C)c([C@H](OC(C)(C)C)C(=O)O)c2-c2cc(F)c3c(c2C)CCCO3)cc1", "note": "[Example 7, (2S)-2-(tert-Butoxy)-2-(5-(4-ethoxyphenyl)-4-(8-fluoro-5-methylchroman-6-yl)-2,6-dimethylpyridin-3-yl)acetic Acid]", "values": [{"measurement": "EC50", "setting": "read-out: Activity", "result": "0.1 to 1", "unit": "µM"}, {"measurement": "EC50", "setting": "read-out: EC50 μM", "result": 0.545, "unit": "µM"}]}
{"compound": "Cc1nc(C)c([C@H](OC(C)(C)C)C(=O)O)c(-c2ccc(OCCc3ccc(F)cc3)cc2)c1-c1ccc(OCCc2ccc(F)cc2)cc1", "note": "[Example 8, (S)-2-(4,5-Bis(4-(4-fluorophenethoxy)phenyl)-2,6-dimethylpyridin-3-yl)-2-(tert-butoxy)acetic Acid]", "values": [{"measurement": "EC50", "setting": "read-out: Activity", "result": "0.1 to 1", "unit": "µM"}]}
{"compound": "Cc1nc(C)c([C@H](OC(C)(C)C)C(=O)O)c(-c2ccc3c(c2)CCCO3)c1-c1ccc(OCCc2ccc(F)cc2)cc1", "note": "[Example 9, (S)-2-(tert-Butoxy)-2-(4-(chroman-6-yl)-5-(4-(4-fluorophenethoxy)phenyl)-2,6-dimethylpyridin-3-yl)acetic Acid]", "values": [{"measurement": "EC50", "setting": "read-out: Activity", "result": "< 0.1", "unit": "µM"}]}
{"compound": "Cc1nc(CN(C)C)c(-c2ccc(OCCc3ccc(F)cc3)cc2)c(-c2ccc3c(c2)CCCO3)c1[C@H](OC(C)(C)C)C(=O)O", "note": "[Example 10, (S)-2-(tert-Butoxy)-2-(4-(chroman-6-yl)-6-((dimethylamino)methyl)-5-(4-(4-fluorophenethoxy)phenyl)-2-methylpyridin-3-yl)acetic Acid]", "values": [{"measurement": "EC50", "setting": "read-out: Activity", "result": "< 0.1", "unit": "µM"}]}
{"compound": "Cc1nc(CNCC2CCOCC2)c(-c2ccc(OCCc3ccc(F)cc3)cc2)c(-c2ccc3c(c2)CCCO3)c1[C@H](OC(C)(C)C)C(=O)O", "note": "[Example 11, (S)-2-(tert-Butoxy)-2-(4-(chroman-6-yl)-5-(4-(4-fluorophenethoxy)phenyl)-2-methyl-6-((((tetrahydro-2H-pyran-4-yl)methyl)amino)methyl)pyridin-3-yl)acetic Acid]", "values": [{"measurement": "EC50", "setting": "read-out: Activity", "result": "< 0.1", "unit": "µM"}]}
{"compound": "COCCNCc1nc(C)c([C@H](OC(C)(C)C)C(=O)O)c(-c2ccc3c(c2)CCCO3)c1-c1ccc(OCCc2ccc(F)cc2)cc1", "note": "[Example 12, (S)-2-(tert-Butoxy)-2-(4-(chroman-6-yl)-5-(4-(4-fluorophenethoxy)phenyl)-6-(((2-methoxyethyl)amino)methyl)-2-methylpyridin-3-yl)acetic Acid]", "values": [{"measurement": "EC50", "setting": "read-out: Activity", "result": "< 0.1", "unit": "µM"}, {"measurement": "EC50", "setting": "read-out: EC50 μM", "result": 0.007, "unit": "µM"}]}
{"compound": "Cc1nc(CN(C)CC2CCOCC2)c(-c2ccc(OCCc3ccc(F)cc3)cc2)c(-c2ccc3c(c2)CCCO3)c1[C@H](OC(C)(C)C)C(=O)O", "note": "[Example 13, (S)-2-(tert-Butoxy)-2-(4-(chroman-6-yl)-5-(4-(4-fluorophenethoxy)phenyl)-2-methyl-6-((methyl((tetrahydro-2H-pyran-4-yl)methyl)amino)methyl)pyridin-3-yl)acetic Acid]", "values": [{"measurement": "EC50", "setting": "read-out: Activity", "result": "< 0.1", "unit": "µM"}]}
{"compound": "Cc1nc(CO)c(-c2ccc(OCCc3ccc(F)cc3)cc2)c(-c2ccc3c(c2)CCCO3)c1[C@H](OC(C)(C)C)C(=O)O", "note": "[Example 14, (S)-2-(tert-Butoxy)-2-(4-(chroman-6-yl)-5-(4-(4-fluorophenethoxy)phenyl)-6-(hydroxymethyl)-2-methylpyridin-3-yl)acetic Acid]", "values": [{"measurement": "EC50", "setting": "read-out: Activity", "result": "< 0.1", "unit": "µM"}]}
{"compound": "Cc1nc(COC2CCOCC2)c(-c2ccc(OCCc3ccc(F)cc3)cc2)c(-c2ccc3c(c2)CCCO3)c1[C@H](OC(C)(C)C)C(=O)O", "note": "[Example 15, (S)-2-(tert-Butoxy)-2-(4-(chroman-6-yl)-5-(4-(4-fluorophenethoxy)phenyl)-2-methyl-6-(((tetrahydro-2H-pyran-4-yl)oxy)methyl)pyridin-3-yl)acetic Acid]", "values": [{"measurement": "EC50", "setting": "read-out: Activity", "result": "< 0.1", "unit": "µM"}]}
{"compound": "Cc1nc(COCC2COC2)c(-c2ccc(OCCc3ccc(F)cc3)cc2)c(-c2ccc3c(c2)CCCO3)c1[C@H](OC(C)(C)C)C(=O)O", "note": "[Example 16, (S)-2-(tert-Butoxy)-2-(4-(chroman-6-yl)-5-(4-(4-fluorophenethoxy)phenyl)-2-methyl-6-((oxetan-3-ylmethoxy)methyl)pyridin-3-yl)acetic Acid]", "values": [{"measurement": "EC50", "setting": "read-out: Activity", "result": "< 0.1", "unit": "µM"}]}
{"compound": "CCOCCOCc1nc(C)c([C@H](OC(C)(C)C)C(=O)O)c(-c2ccc3c(c2)CCCO3)c1-c1ccc(OCCc2ccc(F)cc2)cc1", "note": "[Example 17, (S)-2-(tert-Butoxy)-2-(4-(chroman-6-yl)-6-((2-ethoxyethoxy)methyl)-5-(4-(4-fluorophenethoxy)phenyl)-2-methylpyridin-3-yl)acetic Acid]", "values": [{"measurement": "EC50", "setting": "read-out: Activity", "result": "< 0.1", "unit": "µM"}]}
{"compound": "CCOCCOCCOCc1nc(C)c([C@H](OC(C)(C)C)C(=O)O)c(-c2ccc3c(c2)CCCO3)c1-c1ccc(OCCc2ccc(F)cc2)cc1", "note": "[Example 18, (S)-2-(tert-Butoxy)-2-(4-(chroman-6-yl)-6-((2-(2-ethoxyethoxy)ethoxy)methyl)-5-(4-(4-fluorophenethoxy)phenyl)-2-methylpyridin-3-yl)acetic Acid]", "values": [{"measurement": "EC50", "setting": "read-out: Activity", "result": "< 0.1", "unit": "µM"}]}
{"compound": "Cc1nc(C)c([C@H](OC(C)(C)C)C(=O)O)c(-c2ccc3c(c2)CCCO3)c1-c1ccc2c(c1)CCN(C(=O)OCc1ccccc1)C2", "note": "[Example 19, (S)-2-(5-(2-((Benzyloxy)carbonyl)-1,2,3,4-tetrahydroisoquinolin-6-yl)-4-(chroman-6-yl)-2,6-dimethylpyridin-3-yl)-2-(tert-butoxy)acetic Acid]", "values": [{"measurement": "EC50", "setting": "read-out: Activity", "result": "< 0.1", "unit": "µM"}, {"measurement": "EC50", "setting": "read-out: EC50 μM", "result": 0.069, "unit": "µM"}]}
{"compound": "Cc1nc(C)c([C@H](OC(C)(C)C)C(=O)O)c(-c2ccc3c(c2)CCCO3)c1-c1ccc2c(c1)CCN(Cc1ccc(F)cc1)C2", "note": "[Example 20, (S)-2-(tert-Butoxy)-2-(4-(chroman-6-yl)-5-(2-(4-fluorobenzyl)-1,2,3,4-tetrahydroisoquinolin-6-yl)-2,6-dimethylpyridin-3-yl)acetic Acid]", "values": [{"measurement": "EC50", "setting": "read-out: Activity", "result": "< 0.1", "unit": "µM"}]}
{"compound": "Cc1nc(C)c([C@H](OC(C)(C)C)C(=O)O)c(-c2ccc3c(c2)CCCO3)c1-c1ccc2c(c1)CCNC2", "note": "[Example 21, (S)-2-(tert-Butoxy)-2-(4-(chroman-6-yl)-2,6-dimethyl-5-(1,2,3,4-tetrahydroisoquinolin-6-yl)pyridin-3-yl)acetic acid]", "values": [{"measurement": "EC50", "setting": "read-out: Activity", "result": "> 1", "unit": "µM"}, {"measurement": "EC50", "setting": "read-out: EC50 μM", "result": 7.77, "unit": "µM"}]}
{"compound": "Cc1nc(C)c([C@H](OC(C)(C)C)C(=O)O)c(-c2ccc3c(c2)CCCO3)c1-c1ccc2c(c1)CCN(C)C2", "note": "[Example 22, (S)-2-(tert-Butoxy)-2-(4-(chroman-6-yl)-2,6-dimethyl-5-(2-methyl-1,2,3,4-tetrahydroisoquinolin-6-yl)pyridin-3-yl)acetic acid]", "values": [{"measurement": "EC50", "setting": "read-out: Activity", "result": "0.1 to 1", "unit": "µM"}, {"measurement": "EC50", "setting": "read-out: EC50 μM", "result": 0.628, "unit": "µM"}]}
{"compound": "Cc1nc(C)c([C@H](OC(C)(C)C)C(=O)O)c(-c2ccc3c(c2)CCCO3)c1-c1ccc2c(c1)CCN(Cc1ccccc1F)C2", "note": "[Example 23, (S)-2-(tert-Butoxy)-2-(4-(chroman-6-yl)-5-(2-(2-fluorobenzyl)-1,2,3,4-tetrahydroisoquinolin-6-yl)-2,6-dimethylpyridin-3-yl)acetic Acid]", "values": [{"measurement": "EC50", "setting": "read-out: Activity", "result": "< 0.1", "unit": "µM"}]}
{"compound": "Cc1nc(C)c([C@H](OC(C)(C)C)C(=O)O)c(-c2ccc3c(c2)CCCO3)c1-c1ccc2c(c1)CCN(Cc1cccc(F)c1)C2", "note": "[Example 24, (S)-2-(tert-Butoxy)-2-(4-(chroman-6-yl)-5-(2-(3-fluorobenzyl)-1,2,3,4-tetrahydroisoquinolin-6-yl)-2,6-dimethylpyridin-3-yl)acetic Acid]", "values": [{"measurement": "EC50", "setting": "read-out: Activity", "result": "< 0.1", "unit": "µM"}]}
